Assay results taken from US20210255184A1, “Biosensor Device and Methods” (The New Zealand Institute for Plant and Food Research …, priority 2018, published 2021).
“Also recorded” adds a separate entry of the source.

Assays:
Type in all cases: biochemical
Or10a [1] = molecular target: T1, Or10a (Drosophila melanogaster, UniProt Q9VYZ1); assay: QCM-D sensor, Or10a liposomes; conditions: 1.6 to 1000 μM in PBS with 1% DMSO
T1 construct: his-tag; made in house; host or cells: baculovirus-infected Sf9 cells
T1 sequence (Q9VYZ1 1-406): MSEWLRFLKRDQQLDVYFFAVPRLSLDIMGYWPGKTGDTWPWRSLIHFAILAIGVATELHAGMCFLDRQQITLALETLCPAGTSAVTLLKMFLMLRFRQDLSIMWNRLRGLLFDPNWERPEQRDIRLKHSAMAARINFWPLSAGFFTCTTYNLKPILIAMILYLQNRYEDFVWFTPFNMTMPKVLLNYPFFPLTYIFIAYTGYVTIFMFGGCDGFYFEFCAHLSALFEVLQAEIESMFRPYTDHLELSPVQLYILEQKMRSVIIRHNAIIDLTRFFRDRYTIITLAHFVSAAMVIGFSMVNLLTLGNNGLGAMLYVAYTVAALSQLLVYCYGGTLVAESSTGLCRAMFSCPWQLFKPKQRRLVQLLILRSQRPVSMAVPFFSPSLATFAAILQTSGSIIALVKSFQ
Description: (§1) Gold (100 nm) sensor crystals were sonicated in ethanol and milli-Q water for 15 minutes each respectively. A 5:1:1 volume ratio of milli-Q water, ammonia (25%), and hydrogen peroxide (30%) was heated to 75° C. for 5 minutes and the sonicated crystals were placed in the heated solution for 5 minutes. Then the crystals were removed from the solution and rinsed with milli-Q water before drying with nitrogen gas. The clean gold crystals were thiol-functionalized by exposing them to 2 mM ethanolic solution of MHA overnight followed by washing with ethanol solution in order to remove excess or loosely bound molecules. NHS/EDC was prepared using 2:1 mol:mol ratio of EDC:NHS (100 mM EDC, 50 mM NHS) in 2 ml PBS (pH=6.5) solution. Each OrX/liposome stock solution was diluted 100 fold for QCM-D measurements in PBS buffer solution (pH=7.4). The SAM functionalized crystals were then placed into the Q-sense analyser instrument (Biolin Scientific) chamber and flowed with the NHS/EDC, Or10a/liposomes or Or10a/Orco liposomes, and various concentrations of methyl hexanoate (1.6 μM, 8 μM, 20 μM, 40 μM, 100 μM, 200 μM, 500 μM and 1000 μM) in PBS buffer solution containing 1% DMSO to measure the changes in frequency (Δf) and dissipation (ΔD) values.

Or10a/Orco [2] = molecular target: T2, Or10a/Orco (Drosophila melanogaster, UniProt Q9VYZ1); assay: QCM-D sensor, Or10a/Orco liposomes; conditions: 1.6 to 1000 μM in PBS with 1% DMSO
T2 construct: his-tag; made in house; host or cells: baculovirus-infected Sf9 cells
T2 sequence (Q9VYZ1 1-406): T1 sequence (Q9VYZ1 1-406)
T2 sequence (Q9VNB5 1-486 partner): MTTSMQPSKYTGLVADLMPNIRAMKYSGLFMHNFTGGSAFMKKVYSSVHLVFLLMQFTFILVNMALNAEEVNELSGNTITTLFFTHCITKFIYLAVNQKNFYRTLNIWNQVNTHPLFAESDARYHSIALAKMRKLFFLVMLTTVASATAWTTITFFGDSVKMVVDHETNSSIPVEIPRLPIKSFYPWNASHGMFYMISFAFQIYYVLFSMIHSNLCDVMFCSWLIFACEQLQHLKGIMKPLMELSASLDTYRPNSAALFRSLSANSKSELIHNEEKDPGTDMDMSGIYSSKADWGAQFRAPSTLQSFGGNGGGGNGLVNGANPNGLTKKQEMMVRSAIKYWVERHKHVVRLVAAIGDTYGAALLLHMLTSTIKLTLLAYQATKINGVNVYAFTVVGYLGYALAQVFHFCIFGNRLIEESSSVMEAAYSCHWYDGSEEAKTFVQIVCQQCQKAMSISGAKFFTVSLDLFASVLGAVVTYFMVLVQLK
Description: as §1

Or10a/Orco [3] = molecular target: T2, Or10a/Orco; assay: GFET sensor, Or10a/Orco liposomes; conditions: Table 4, GFET
From the text: (§2) The GFETs used in this study were fabricated from a predeposited graphene film on 300 nm SiO2 coated Si substrate from ACS Suppliers, USA. The FETs consist of a channel with dimensions of 100 μm width and […]. The key steps involved in fabricating the GFET on a Si/SiO2 substrate is schematically illustrated in FIG. 12. The source and drain electrodes were defined by photolithography and formed by successive deposition of Cr and Au. Both the drain and source electrodes were then encapsulated using AZ1518 photoresist and a channel with dimensions of 100 μm width and 10 μm length was left open to the environment for gating and functionalisation.
(§3) The OR liposomes were functionalised onto the graphene surface via a non-covalent route using PBASE as the molecular linker as shown in FIG. 13. The OR liposomes were diluted at 1:10 ratio with 1×PBS (pH7.4). The cleaned GFETs were immersed in 1 mM PBASE solution in methanol for 1 hour. […]
(§4) Electrical sensor measurements of OR liposome functionalised GFETs were carried out using top liquid gate morphology as shown in the schematic in FIG. 15 (a). […] The transfer characteristics of the different graphene FETs (FIG. 15 (b) to (g)) were measured at Vds=1 mV while the liquid gate voltage Vlg was swept from −0.5 V to 1 V with an interval of 20 mV. […]

Or10a [4] = molecular target: T1, Or10a; assay: GFET sensor, Or10a liposomes; conditions: Table 4, GFET
From the text: as §2, §3, §4

Row | Compound | change in oscillation frequency on ligand exposure (Or10a [1]) | change in oscillation frequency on ligand exposure (Or10a/Orco [2]) | Detection Range (Or10a/Orco [3]) | EC50 (Or10a/Orco [3]) | Detection Range (Or10a [4]) | EC50 (Or10a [4])
1 | CCCCCC(=O)OC [methyl hexanoate] | negligible response; also recorded: not observed | negligible response; also recorded: not observed | – | – | – | –
2 | COC(=O)c1ccccc1O [methyl salicylate] | increase in the frequency | greater response; also recorded: increase in the frequency | 10^−13-10^−8 M | 2.07 pM | 10^−12 to 10^−8 M | 15.6 pM
